Source: article PMC4837090 (Nature chemical biology, 2016)

How the values were obtained:
[1] = system: LNCaP cells; assay: in situ 13C,2H-PAHSA hydrolysis; format: cell-based, human; details: 5 μM, 4 h, then 2 μM 13C,2H-PAHSA 2 h
[2] = molecular target: T1, hAIG1 (Homo sapiens, UniProt Q9NVV5); format: binding
T1 sequence (Q9NVV5 1-238): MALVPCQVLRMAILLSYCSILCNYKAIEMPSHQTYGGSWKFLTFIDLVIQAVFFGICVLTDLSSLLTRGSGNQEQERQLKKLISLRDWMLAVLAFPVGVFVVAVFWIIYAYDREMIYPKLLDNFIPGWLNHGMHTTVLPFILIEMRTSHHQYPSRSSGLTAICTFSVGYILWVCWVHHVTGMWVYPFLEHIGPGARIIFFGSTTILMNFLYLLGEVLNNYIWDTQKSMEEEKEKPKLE

CCCCCCCCCCC[C@@H](C[C@@H]1OC(=O)[C@H]1CCCCCC)OC(=O)[C@H](CC(C)C)NC=O [THL, tetrahydrolipstatin]
reduction in 13C16-PA and 2H19-HSA products (13C,2H-PAHSA hydrolysis) vs DMSO [1]: negligible alterations | inhibition of FP reactivity of AIG1 [2]: did not inhibit
